Laboratory results: US20240123012A1 (priority 2021, published 2024)

Target: human recombinant DHODH (rhDHODH) (Homo sapiens, UniProt Q02127)
Assay: Inhibition of the activity of rh DHODH on its colorimetric substrate (OD at 600 nm)
Type: biochemical
Protocol: This mother tincture constitutes the sample to be tested. The measurement of the inhibition of the action of DHODH on its substrate is carried out in a conventional multi-well plate with a transparent wall. The wells contain the samples to be tested, the DHODH and its substrate.
To evaluate the inhibition of the DHODH by the sample, the parameter of the optical density called “OD” is used. Indeed, in each well, the “OD” is measured at a wavelength of 600 nm, at several time intervals, for a duration of 5 min.
More specifically, each well comprises the diluted or non-diluted sample, the enzyme of the DHODH and its colorimetric substrate diluted in a test buffer. Said colorimetric substrate comprises DHO which can be converted into ORO by action of the DHODH.
Over time, the consumption of the colorimetric substrate DHO by the enzyme DHODH results in a reduction in the OD. This decrease indicates the conversion of the colored DHO into uncolored ORO by the activity of the DHODH. In other words, the DHO is consumed, […] to ORO by the activity of the DHODH, which causes a modification of the OD measured.
In the event of inhibition of the activity of the DHODH by the sample, the OD remains stable over time. Indeed, in the case of inhibition, the colorimetric DHO substrate will not be transformed by the DHODH into ORO, the OD therefore will remain that of the initial DHO.
To carry out the experiments, the following were used: • a solution of class 1 enzyme called “rhDHODH” for “human recombinant DHODH”, • a test buffer consisting of 50 mM Tris, 150 mM KCl and 0.1% Triton® X-100, at pH 8, • a substrate mixture of DHODH containing: 2 mM of L-dihydroorotic called “DHO”, 0.2 mM of decylubiquinone called “Q” and 0.12 mM of 2,6-Dichloroindophenol sodium salt hydrate called “DP IP” in the test buffer, • a mother tincture sample of a leaf extract of a Neurolaena lobata plant, diluted or not, in a dilution buffer consisting of dimethyl sulfoxide called “DMSO”.
To start the protocol, each dilution of the sample H1 or H2 was placed in the presence of the rh DHODH enzyme and the mixture of substrate within a well. In order to obtain an average of OD measured for a sample concentration H1 or H2, triplicates were carried out for each of the dilution concentrations of H1 and H2.
The amount of enzyme added in each well is the same. In the protocol, the enzyme is added to the well so as to have a concentration of 0.06 μg of rh DHODH enzyme/mL of total solution in the well.
% of activity=(ΔH1×100)/Δ of the negative control.
The % of inhibition is calculated by the following formula: 100—the value of the % of activity.

Chain of human recombinant DHODH (rhDHODH) (Q02127 whole entry): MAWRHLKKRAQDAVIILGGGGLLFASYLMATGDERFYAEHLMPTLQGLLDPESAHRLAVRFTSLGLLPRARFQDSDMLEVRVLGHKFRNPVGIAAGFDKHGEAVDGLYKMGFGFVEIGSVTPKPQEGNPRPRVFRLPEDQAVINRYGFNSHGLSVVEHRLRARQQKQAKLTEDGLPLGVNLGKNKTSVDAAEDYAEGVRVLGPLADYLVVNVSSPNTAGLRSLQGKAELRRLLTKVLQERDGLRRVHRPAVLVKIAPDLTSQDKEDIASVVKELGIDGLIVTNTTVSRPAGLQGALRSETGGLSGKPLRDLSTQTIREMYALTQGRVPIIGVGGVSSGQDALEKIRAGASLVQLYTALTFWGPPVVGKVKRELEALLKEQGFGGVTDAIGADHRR

- activity at 0.001 µg/mL: 6.25%
- activity at 0.01 µg/mL: 7.21%
- activity at 0.1 µg/mL: 0%
- activity at 1 µg/mL: 0%
- Δ (OD at 0 s minus OD at 275 s) (0.001 μg/mL): 0.013
- inhibition at 0.001 µg/mL (0.001 μg/mL, 0-275 s): 93.8%
- OD at 600 nm (0.001 μg/mL, 0 s): 0.339
- OD at 600 nm (0.001 μg/mL, 55 s): 0.340
- OD at 600 nm (0.001 μg/mL, 110 s): 0.333
- OD at 600 nm (0.001 μg/mL, 165 s): 0.331
- OD at 600 nm (0.001 μg/mL, 220 s): 0.328
- OD at 600 nm (0.001 μg/mL, 275 s): 0.326
- Δ (OD at 0 s minus OD at 275 s) (0.01 μg/mL): 0.015
- inhibition at 0.01 µg/mL (0.01 μg/mL, 0-275 s): 92.8%
- OD at 600 nm (0.01 μg/mL, 0 s): 0.344
- OD at 600 nm (0.01 μg/mL, 55 s): 0.345
- OD at 600 nm (0.01 μg/mL, 110 s): 0.339
- OD at 600 nm (0.01 μg/mL, 165 s): 0.336
- OD at 600 nm (0.01 μg/mL, 220 s): 0.348
- OD at 600 nm (0.01 μg/mL, 275 s): 0.329
- Δ (OD at 0 s minus OD at 275 s) (0.1 μg/mL): 0.000
- inhibition at 0.1 µg/mL (0.1 μg/mL, 0-275 s): 100%
- OD at 600 nm (0.1 μg/mL, 0 s): 0.349
- OD at 600 nm (0.1 μg/mL, 55 s): 0.348
- OD at 600 nm (0.1 μg/mL, 110 s): 0.353
- OD at 600 nm (0.1 μg/mL, 165 s): 0.345
- OD at 600 nm (0.1 μg/mL, 220 s): 0.350
- OD at 600 nm (0.1 μg/mL, 275 s): 0.349
- Δ (OD at 0 s minus OD at 275 s) (1 μg/mL): 0.001
- inhibition at 1 µg/mL (1 μg/mL, 0-275 s): 100%
- OD at 600 nm (1 μg/mL, 0 s): 0.354
- OD at 600 nm (1 μg/mL, 55 s): 0.354
- OD at 600 nm (1 μg/mL, 110 s): 0.352
- OD at 600 nm (1 μg/mL, 165 s): 0.361
- OD at 600 nm (1 μg/mL, 220 s): 0.357
- OD at 600 nm (1 μg/mL, 275 s): 0.353
SMILES: Cc1c(-c2ccc(-c3ccccc3F)cc2)nc2ccc(F)cc2c1C(=O)O [brequinar]
